ChEMBL document CHEMBL1201862, “PubChem BioAssay data set” (2004)
One block for each compound: values may come before it. Activity calls are given as the source filed them.

Legend:
INS1 = experiment: INS-1E survival protection against cytokine death – cell-based, luminescence, retest, dose response (AID 449756); format: functional; conditions: Rattus norvegicus;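 further: cell death triggered by IL-1 beta plus TNF-alpha plus IFN-gamma mixture; protective hits raise ATP signal compared with cytokine alone wells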
[1] = reduction of Shn3 3'UTR-driven luciferase in osteoblasts – cell-based, Clone20 osteoblasts, firefly luciferase, cherry-picked, dose response (AID 624132); format: functional;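 further: firefly luciferase luminescence from reporter carrying the Shn3 3'UTR in osteoblasts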
[2] = OVCAR-3 cell viability loss – plate reader, dry powder samples, PAX8 inhibitor project, dose response (AID 743044); format: functional, cell-based
[3] = A2780 cell killing – plate reader, dry powder samples, cytotoxicity control, dose response (AID 743046); format: functional, cell-based
[4] = PAX5 cellular inhibition readout – cell-based, plate reader, dry powder samples, selectivity assay for PAX8 inhibitor project, dose response (AID 743047); format: functional;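 further: HEK293 cells carrying a Pax5 driven CD19 promoter luciferase reporter; potency of inhibitors that lower reporter luminescence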
[5] = IGROV1 cell killing – plate reader, dry powder samples, PAX8 inhibitor project, dose response (AID 743043); format: functional, cell-based; conditions: IGROV-1
[6] = target: T1, Probable nicotinate-nucleotide adenylyltransferase (Staphylococcus aureus (strain N315), UniProt P65502); format: functional, Staphylococcus aureus subsp. aureus N315;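 on IC50 Mean: confirmatory dose-response retesting of NadD inhibitor hits first found in an ultra-high-throughput screen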
[7] = OV-90 cell viability loss – plate reader, dry powder, SA8, PAX8 inhibitor project, dose response (AID 743149); format: functional, cell-based
[8] = loss of viability in HepG2 cells – cell-based, CellTiter-Glo, cherry-picked, cytotoxicity control for Shn3 inhibitor project, dose response (AID 624134); format: functional
Paired box protein Pax-8 = Paired box protein Pax-8 (Homo sapiens, UniProt Q06710); experiment: PAX8 transcriptional activity inhibition in RMG-I – RMG-I cells, luciferase, cherry-pick, dose response (AID 687027); format: functional, cell-based;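 further: luciferase reporter driven by Pax8 target thyroperoxidase promoter measured by SteadyGlo luminescence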
Chain of Paired box protein Pax-8 (Q06710 whole entry): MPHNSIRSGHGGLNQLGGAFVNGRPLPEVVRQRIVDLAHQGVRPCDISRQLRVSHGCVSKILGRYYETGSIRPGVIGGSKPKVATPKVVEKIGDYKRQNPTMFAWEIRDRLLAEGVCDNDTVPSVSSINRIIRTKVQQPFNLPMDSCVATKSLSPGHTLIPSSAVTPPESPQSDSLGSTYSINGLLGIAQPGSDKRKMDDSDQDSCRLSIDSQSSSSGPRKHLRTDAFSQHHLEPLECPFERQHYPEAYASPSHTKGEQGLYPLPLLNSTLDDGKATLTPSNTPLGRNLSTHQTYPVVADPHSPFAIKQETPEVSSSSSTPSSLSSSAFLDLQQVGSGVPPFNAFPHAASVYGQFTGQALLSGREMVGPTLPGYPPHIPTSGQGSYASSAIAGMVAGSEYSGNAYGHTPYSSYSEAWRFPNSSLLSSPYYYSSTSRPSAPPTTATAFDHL

Streptococcus = experiment: GAS UMAA2166 growth inhibition – luminescence, BacTiterGlo, counter-screen for streptokinase expression inhibitor project, dose response (AID 1915); format: functional, organism-based;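 further: potency for reduction of bacterial viability or growth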
[9] = OVCAR4 cell viability loss – plate reader, dry powder, SA11, cytotoxicity control for PAX8 inhibitor project, dose response (AID 743150); format: functional, cell-based; conditions: OVCAR-4
[10] = COV362 cell viability loss – plate reader, dry powder, SA12, cytotoxicity control for PAX8 inhibitor project, dose response (AID 743144); format: functional, cell-based
[11] = COV434 cell viability loss – plate reader, dry powder, SA7, cytotoxicity control for PAX8 inhibitor project, dose response (AID 743145); format: functional, cell-based
[12] = inhibitors acting on PAX2 in cells – cell-based, plate reader, dry powder samples, selectivity assay for PAX8 inhibitor project, dose response (AID 743048); format: functional;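 further: HEK293 cells carrying a WT1 promoter luciferase reporter driven by expressed Pax2; potency is for inhibition of Pax2 driven reporter signal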
[13] = target: T1, Probable nicotinate-nucleotide adenylyltransferase; format: functional, Staphylococcus aureus subsp. aureus N315; conditions: read-out: IC50_Mean
[14] = tested on: Streptococcus sp. 'group A'; experiment: Streptococcus pyogenes SK(-)GAS viability under kanamycin – luminescence, BacTiterGlo, confirmation, counter-screen for streptokinase expression inhibitor project, dose response (AID 1900); format: functional, organism-based
cells [15] = format: functional, cell-based
[16] = PAX8-dependent cell viability loss – plate reader, dry powder, dose response (AID 743049); format: functional, cell-based
cells [17] = format: functional, cell-based; remark: listed apart in the source
[18] = target: T2, Type-1 angiotensin II receptor (Homo sapiens, UniProt P30556); experiment: agonist activity at AGTR1 – cell-based, uHTS hits, selectivity assay for APJ receptor agonist project, dose response (AID 488865); format: functional;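 further: beta-arrestin recruitment to AT1 measured by enzyme fragment complementation luminescence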
T2 sequence (P30556 whole entry): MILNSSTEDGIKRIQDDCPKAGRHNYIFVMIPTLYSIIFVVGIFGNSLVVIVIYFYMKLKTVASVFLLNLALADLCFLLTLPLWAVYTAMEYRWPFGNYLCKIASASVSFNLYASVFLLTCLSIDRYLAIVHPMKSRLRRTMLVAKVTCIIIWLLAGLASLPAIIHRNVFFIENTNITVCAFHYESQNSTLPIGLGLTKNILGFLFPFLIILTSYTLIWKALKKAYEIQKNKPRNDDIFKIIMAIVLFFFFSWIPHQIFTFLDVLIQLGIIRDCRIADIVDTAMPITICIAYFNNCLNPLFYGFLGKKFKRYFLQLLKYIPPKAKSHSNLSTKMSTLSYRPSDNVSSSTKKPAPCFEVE

[19] = Trypanosoma cruzi growth suppression in host cells – NIH3T3 host cells, beta-gal luminescence, confirmation (AID 2044); format: functional, cell-based;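 further: intracellular parasites grown in NIH/3T3 mouse fibroblasts as host cells; luminescent beta-galactosidase reporter signal from transgenic T. cruzi replicating inside host cells; inhibitors lower the luminescence signal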
[20] = non-specific 3'UTR reporter inhibition in Clone20-Shn3RL – cell-based, Renilla luciferase, cherry-picked, counter-screen for Shn3 inhibitor project, dose response (AID 624133); format: functional
[21] = NIH3T3 cell viability loss – ATP luminescence, mouse fibroblasts, counter-screen, dose response (AID 2010); format: functional, cell-based;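 further: cells exposed to compound for about 90 hours before reading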
[22] = reduced cellular PGC1a acetyl-lysine signal – cell-based, cherry-picked samples, dose response (AID 720514); format: functional;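 further: potency may reflect raised or lowered acetylation signal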
[23] = target: RNA-editing ligase 1, mitochondrial (Trypanosoma brucei brucei, UniProt P86926); experiment: inhibition of trypanosome RNA editing ligase – biochemical, fluorescence, Trypanosoma brucei, dose response (AID 1117295); format: functional
Chain of RNA-editing ligase 1, mitochondrial (P86926 whole entry): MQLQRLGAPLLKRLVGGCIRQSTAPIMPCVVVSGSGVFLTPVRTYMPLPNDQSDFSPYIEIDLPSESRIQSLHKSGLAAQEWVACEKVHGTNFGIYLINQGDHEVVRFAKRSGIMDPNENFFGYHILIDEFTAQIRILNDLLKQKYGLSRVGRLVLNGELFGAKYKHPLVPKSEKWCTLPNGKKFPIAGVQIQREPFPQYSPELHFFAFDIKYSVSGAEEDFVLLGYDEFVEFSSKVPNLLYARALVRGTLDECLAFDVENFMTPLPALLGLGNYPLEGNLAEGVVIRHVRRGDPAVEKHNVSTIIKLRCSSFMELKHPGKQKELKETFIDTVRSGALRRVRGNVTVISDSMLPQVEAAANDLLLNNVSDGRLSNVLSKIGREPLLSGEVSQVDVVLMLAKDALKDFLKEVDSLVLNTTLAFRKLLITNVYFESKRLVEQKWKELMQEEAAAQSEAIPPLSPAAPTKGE

Vasopressin V1b receptor = Vasopressin V1b receptor (Homo sapiens, UniProt P47901); experiment: Late-stage results from the probe development effort to identify antagonists of arginine vasopressin receptor 1a (AVPR1a): fluorescence-based cell-based dose response AVPR1b inhibition counterscreen assay.; format: functional
Chain of Vasopressin V1b receptor (P47901 whole entry): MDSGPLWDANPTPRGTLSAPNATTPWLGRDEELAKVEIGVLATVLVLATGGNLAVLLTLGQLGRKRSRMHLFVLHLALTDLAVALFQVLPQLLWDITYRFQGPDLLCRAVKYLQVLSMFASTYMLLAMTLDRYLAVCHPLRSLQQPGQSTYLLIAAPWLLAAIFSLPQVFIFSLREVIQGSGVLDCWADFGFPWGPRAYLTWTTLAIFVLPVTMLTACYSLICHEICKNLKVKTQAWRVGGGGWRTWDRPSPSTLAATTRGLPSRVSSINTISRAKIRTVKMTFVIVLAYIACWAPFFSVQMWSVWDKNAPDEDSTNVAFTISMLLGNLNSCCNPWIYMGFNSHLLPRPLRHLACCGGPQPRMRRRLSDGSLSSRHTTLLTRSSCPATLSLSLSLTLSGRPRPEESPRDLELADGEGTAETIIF

[24] = Late-stage results from the probe development effort to identify antagonists of arginine vasopressin receptor 1a (AVPR1a): fluorescence-based cell-based dose response AVPR1a inhibition assay.; format: functional
Vasopressin V2 receptor = Vasopressin V2 receptor (Homo sapiens, UniProt P30518); experiment: Late-stage results from the probe development effort to identify antagonists of arginine vasopressin receptor 1a (AVPR1a): fluorescence-based cell-based dose response AVPR2 inhibition counterscreen assay.; format: functional
Chain of Vasopressin V2 receptor (P30518 whole entry): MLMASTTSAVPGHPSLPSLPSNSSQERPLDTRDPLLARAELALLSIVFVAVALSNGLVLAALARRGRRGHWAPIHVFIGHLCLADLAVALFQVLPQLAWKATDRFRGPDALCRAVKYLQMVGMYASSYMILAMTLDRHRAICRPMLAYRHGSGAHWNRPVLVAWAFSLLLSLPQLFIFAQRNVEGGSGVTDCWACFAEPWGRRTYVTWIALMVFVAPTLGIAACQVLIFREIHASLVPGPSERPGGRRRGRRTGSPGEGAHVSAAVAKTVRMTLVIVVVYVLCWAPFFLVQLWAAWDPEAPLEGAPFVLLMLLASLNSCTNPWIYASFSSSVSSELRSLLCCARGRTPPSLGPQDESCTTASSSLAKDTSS

[25] = Late-stage results from the probe development effort to identify antagonists of arginine vasopressin receptor 1a (AVPR1a): fluorescence-based cell-based dose response OXTR inhibition counterscreen assay.; format: functional
[26] = target: Induced myeloid leukemia cell differentiation protein Mcl-1 (Homo sapiens, UniProt Q07820); format: functional
Chain of Induced myeloid leukemia cell differentiation protein Mcl-1 (Q07820 whole entry): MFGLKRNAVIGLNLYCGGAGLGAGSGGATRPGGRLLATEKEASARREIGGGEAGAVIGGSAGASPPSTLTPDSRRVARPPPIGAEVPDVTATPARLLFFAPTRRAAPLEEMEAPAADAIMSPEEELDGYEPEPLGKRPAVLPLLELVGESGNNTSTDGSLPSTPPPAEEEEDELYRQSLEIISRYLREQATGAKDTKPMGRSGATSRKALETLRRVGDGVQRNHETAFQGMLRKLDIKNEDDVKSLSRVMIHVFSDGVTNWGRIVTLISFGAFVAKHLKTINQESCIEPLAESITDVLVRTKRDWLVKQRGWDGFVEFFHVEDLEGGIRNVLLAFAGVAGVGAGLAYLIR

[27] = IC50 of Artemis nuclease activity blockers – biochemical, fluorescence intensity, dose response (AID 720701); format: functional;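 further: Artemis endonuclease enzyme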
Bcl-2-like protein 10 = Bcl-2-like protein 10 (Homo sapiens, UniProt Q9HD36); experiment: Bcl-B/TR3 peptide binding disruption – biochemical, fluorescence polarization, FITC-TR3 peptide, selectivity assay for Bfl-1 inhibitor project, primary screen (AID 748);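 further: fluorescence polarization from a fluorescein-labelled TR3 peptide binding purified Bcl-B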
Chain of Bcl-2-like protein 10 (Q9HD36 whole entry): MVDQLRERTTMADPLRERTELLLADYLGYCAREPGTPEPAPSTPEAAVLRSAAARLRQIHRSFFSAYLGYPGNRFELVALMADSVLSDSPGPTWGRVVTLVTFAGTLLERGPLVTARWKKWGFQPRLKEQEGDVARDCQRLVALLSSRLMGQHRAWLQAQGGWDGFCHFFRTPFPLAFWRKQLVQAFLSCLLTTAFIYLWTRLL

Compound: Cc1cc(C)c2sc(NNC(=O)c3ccc(S(=O)(=O)N4CCc5ccccc5C4)cc3)nc2c1
AC50 (INS1): 1.36 µM (active) | AC50 [1]: 1.8 µM (active) | AC50 [2]: 6.31 µM (active) | AC50 [3]: 6.67 µM (active) | AC50 [4]: 4.85 µM (active) | AC50 [5]: 8.92 µM (active) | IC50 [6]: 7.44 µM (active) | AC50 [7]: 20.8 µM (active) | AC50 [8]: 33.1 µM (active) | AC50 (Paired box protein Pax-8): 2.27 µM (active) | EC50 (Streptococcus): 3.44 µM (active) | AC50 [9]: 43.4 µM (active) | AC50 [10]: 19.2 µM (active) | AC50 [11]: 12.4 µM (active) | AC50 [12]: 3.1 µM (active) | IC50 [13]: 42.2 µM (active) | EC50 [14]: 1.29 µM (active) | EC50 (cells [15]): > 350 µM (not active) | AC50 [16]: 10.3 µM (active) | EC50 (cells [17]): 41.8 µM (active) | EC50 [18]: > 100 µM (inactive) | EC50 [19]: 1.22 µM (active) | AC50 [20]: 1.35 µM (active) | EC50 [21]: 1.82 µM (active)

Compound: CCOc1ccc(N2C(=O)Cc3ccccc3C2=O)cc1
AC50 [22]: 32.7 µM (active)

IC50 [23]: > 96.6 µM (inactive)
Compound: COC(=O)C1=C(C)N(Cc2ccccc2C(F)(F)F)C(NCc2ccc(C(F)(F)F)cc2)=NC1c1cccc(F)c1 (stereo not drawn)

Compound: O=C(C1CCN(c2ncccc2C(F)(F)F)CC1)N(CC1CC1)c1ccc(Cl)cc1
IC50 (Vasopressin V1b receptor): 5.93 µM (active) | IC50 [24]: 0.084 µM (active) | IC50 (Vasopressin V2 receptor): 5.91 µM (active) | IC50 [25]: 0.8 µM (active)

IC50 [26]: 3.44 µM (active) | IC50 [27]: 16.2 µM (active) | IC50 (Bcl-2-like protein 10): 41.9 µM (active)
Compound: COc1ccc(C(=O)Nc2ccc(N3CCCC3)cc2)cc1
